Experimental findings from patent US4163011A, “Peptide compounds and compositions” (priority 1978, dated 1979) are described below.

Peptide text beside a SMILES is read from it.

What all share (assay type): in vivo
For test [1], the system named is adult female mice. The test can be described thus: Compensatory Ovarian Hypertrophy (COH) after unilateral ovariectomy (Table I). The following applies: for COH (± SE): sacrificed day 5, control 45.5 ± 5.3. On the procedure:
A. Compensatory Ovarian Hypertrophy (COH) is an effect in standard laboratory (mammalian) animals for assessing antigonadotrophic activity by determining the increase in weight of the remaining gonad after unilateral gonadectomy. Procedures for COH measurement in female rats are described in Ramirez, V.D., et al., Endocrinology 95:475 (1974). According to these known procedures threonine-serine-lysine, prepared in Example 1, is administered intraperitoneally to adult female mice on the same day as a unilateral ovariectomy is performed. On day 5, both experimental and control animals are sacrificed and mean ovarian weights are obtained.

The test system of test [2] is Female Mice. The test can be described thus: Compensatory ovarian hypertrophy in unilaterally ovariectomized mice (Table II). The following applies: 5 days after treatment, control 29.7 ± 8.4. On the procedure:
(§1) B. The effect of threonine-serine-lysine on serum concentrations of FSH in the […] is measured 24 hr after intraperitoneal injection of threonine-serine-lysine to unilaterally ovariectomized mice. On day 5 after injection, the animals were sacrificed and ovarian weights recorded There are then determined compensatory ovarian hypertrophy (5 days after treatment) as well as the serum FSH (24 hr after treatment).

Test [3] concerns Serum FSH. The test can be described thus: Serum FSH in unilaterally ovariectomized mice (Table II). The following applies: 24 hr after treatment, control 296.8 ± 375. The method, then: as §1
For test [4], the system named is GnRH-induced rise in FSH. Nature of the test: Inhibition of GnRH-induced rise in FSH in the male rat (Table III). The following applies: for Mean concentration of plasma FSH (± SE): GnRH-treated male rat. On the procedure:
C. The antifertility effects of threonine-serine-lysine on the male rat are measured by their ability to inhibit GnRH-or gonadotropin releasing hormone-induced rise in FSH when threonine-serine-lysine is administered intravenously. In this test, both control and tripeptide-treated animals received GnRH in a phosphate buffered saline solution, followed by the administration of the tripeptide in the same buffer.

On to `C[C@@H](O)[C@H](N)C(=O)N[C@@H](CO)C(=O)N[C@@H](CCCCN)C(=O)O` [threonine-serine-lysine] (H-Thr-Ser-Lys-OH), for which the “COH (± SE)” value in test [1] (dose 186.1 ng intraperitoneally on day of unilateral ovariectomy) is listed as 34.6 ± 6.8%; in test [1] (dose 372.2 ng intraperitoneally on day of unilateral ovariectomy) it was 11.1 ± 15.1%; in test [2] (dose 35.1 ng intraperitoneal), 12.6 ± 10.9%; in test [2] (dose 70.3 ng intraperitoneal) it was 21.9 ± 8.0%; in test [2] (dose 175.7 ng intraperitoneal) it was 12.9 ± 5.0%; in test [2] (dose 351.7 ng intraperitoneal), 21.1 ± 7.8%. Also, the “Compensatory ovarian hypertrophy, result in words” value in test [1] (intraperitoneal, Table I doses) was “reduced in a dose-dependent manner”. In addition, the “Serum FSH (± SE)” value was found to be 254.4 ± 88.7 ng/mL in test [3] (dose 35.1 ng intraperitoneal), 377.0 ± 56.9 ng/mL in test [3] (dose 70.3 ng intraperitoneal), 165.0 ± 22.5 ng/mL in test [3] (dose 175.7 ng intraperitoneal) and 179.0 ± 60.9 ng/mL in test [3] (dose 351.7 ng intraperitoneal). In addition, the “Mean concentration of plasma FSH (± SE)” value in test [4] (dose 1.48 ng intravenously, 0 min, control 362.5 ± 20.7) was determined as 302.2 ± 26.2 ng/mL; in test [4] (dose 1.48 ng intravenously, 15 min, control 1753.4 ± 450.6), 338.4 ± 38.8 ng/mL; in test [4] (dose 1.48 ng intravenously, 30 min, control 1701.6 ± 720.6), 592.5 ± 217.6 ng/mL; in test [4] (dose 1.48 ng intravenously, 60 min, control 247.8 ± 14.0), 586.5 ± 301.3 ng/mL; in test [4] (dose 14.8 ng intravenously, 0 min, control 362.5 ± 20.7) it was 45.6 ± 52.3 ng/mL; in test [4] (dose 14.8 ng intravenously, 15 min, control 1753.4 ± 450.6), 402.9 ± 117.7 ng/mL. Further, the “Mean concentration of plasma FSH (± SE)” value in test [4] (dose 14.8 ng intravenously, 30 min, control 1701.6 ± 720.6) worked out at 472.7 ± 76.9 ng/mL; in test [4] (dose 14.8 ng intravenously, 60 min, control 247.8 ± 14.0), 684.5 ± 142.0 ng/mL; in test [4] (dose 148 ng intravenously, 0 min, control 362.5 ± 20.7), 43.9 ± 85.6 ng/mL; in test [4] (dose 148 ng intravenously, 15 min, control 1753.4 ± 450.6) it was 646.1 ± 198.0 ng/mL; in test [4] (dose 148 ng intravenously, 30 min, control 1701.6 ± 720.6), 1407.8 ± 499.6 ng/mL; in test [4] (dose 148 ng intravenously, 60 min, control 247.8 ± 14.0), 1279.6 ± 180.8 ng/mL. In addition, the “GnRH-induced rise in FSH, result in words” value in test [4] (intravenous, male rat, Table III doses) is “FSH suppression”.
